Test results taken from paper PMC8634879, “Design, Synthesis, and Biological Evaluation of Pyrano[2,3-c]-pyrazole–Based RalA Inhibitors Against Hepatocellular Carcinoma” (Frontiers in Chemistry, 2021).
Where two headings read alike, the source gives them in different places.

Columns and labels:
[1] = molecular target: T1, RalA (Homo sapiens, UniProt P11233); experiment: ELISA-based RalA activity assay (RalBP1-coated plates, lysates of compound-treated cells); type: biochemical; conditions: for remaining activity at 1 µM: 1 μM compound, % control = activity remained; for IC50: enzymatic inhibition, average of at least three independent replicates ± SD, read-out: Kinase activities (IC50, μM) RalA
T1 construct: expressed in transfected cells; host or cells: HepG2 (from b6; the methods paragraph names no cell line)
T1 sequence (P11233 1-203 limits assumed): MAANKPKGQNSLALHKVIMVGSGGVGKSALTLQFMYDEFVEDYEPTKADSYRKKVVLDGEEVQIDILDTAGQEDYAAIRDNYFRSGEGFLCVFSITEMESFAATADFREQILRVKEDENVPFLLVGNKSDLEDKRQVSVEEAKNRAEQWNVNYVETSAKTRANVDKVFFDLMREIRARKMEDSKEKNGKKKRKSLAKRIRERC
Method: (§1) The in vitro RalA/B bioactivity assays were performed following methods outlined in previous reports. ([Yan et al., 2016]; [Zhang et al., 2018]; [Walsh et al., 2019]; [Bum-Erdene et al., 2020]). In brief, the lysates of the test compound or vehicle-treated cells were cleared using cold centrifugation, and supernatants were collected. An RalBP1 solution was added to 96-well plates and incubated for 1–2 h, and then the plates were washed thrice using ELISA buffer. Next, cellular lysates were added, and samples were incubated overnight at 4°C. Then, ice-cold mouse anti-FLAG antibody was added, and samples were incubated for one more hour. After subsequent washing with ELISA buffer thrice, the HRP-conjugated anti-mouse antibody was added, and samples were incubated for another hour. Then, the HRP substrate was added. Antigen–antibody reactions were quenched by the addition of sulfuric acid (2 mol/L). Remaining RalA/B was detected by the OD450 values which were collected by using a plate reader. Cell proliferation assays, colony formation assays, apoptosis assays, GST pulldown, and Western blotting were used following methods outlined in our previous reports. ([Zhou et al., 2015]; [Zhang et al., 2016]; [Yang et al., 2017]; [He et al., 2019]). Autophagy levels and protein immunoblotting were used following the methods mentioned in our previous reports ([Pan et al., 2018]; [Wang et al., 2018]; [Hao et al., 2019]; [Wang et al., 2019]; [Peng et al., 2020]). Detailed experimental procedures are described in supporting materials.

[2] = molecular target: T2, RalB (Homo sapiens, UniProt P11234); experiment: ELISA-based RalB activity assay (RalBP1-coated plates, lysates of compound-treated cells); type: biochemical; conditions: for remaining activity at 1 µM: 1 μM compound, % control = active (RalBP1-bound) RalB remaining; for IC50: enzymatic inhibition, average of at least three independent replicates ± SD, read-out: Kinase activities (IC50, μM) RalB
T2 construct: expressed in transfected cells; host or cells: HepG2 (from b6; the methods paragraph names no cell line)
T2 sequence (P11234 1-203 limits assumed): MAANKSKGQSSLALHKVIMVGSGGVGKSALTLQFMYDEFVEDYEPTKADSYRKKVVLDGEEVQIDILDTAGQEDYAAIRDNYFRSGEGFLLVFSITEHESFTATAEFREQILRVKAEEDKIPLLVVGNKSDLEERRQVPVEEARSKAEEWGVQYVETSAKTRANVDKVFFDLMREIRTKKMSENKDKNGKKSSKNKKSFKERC
Method: as §1

[3] = tested on: HepG2 cells; experiment: Cell proliferation assay (MTT), HepG2; type: cell-based; conditions: Homo sapiens
Method: (§2) The antibodies recognizing LC3, p62/SQSTM1, RalA, RalB, and GAPDH were purchased from Proteintech (Wuhan, China). HCC cell lines, including HepG2, Hep3B, Huh-7, and SMMC-7721, were obtained from the Chinese Center for Type Culture Collection (Wuhan, China) and cultured in DMEM (Dulbecco’s modified Eagle’s medium) with 10% FBS (fetal bovine serum) and streptomycin. Cytotoxicity assays were performed by using the MTT method as previously described.
as §1

[4] = tested on: Huh-7 cells; experiment: Cell proliferation assay (MTT), Huh-7; type: cell-based; conditions: Homo sapiens
Method: as §2, §1

[5] = tested on: Hep3B cells; experiment: Cell proliferation assay (MTT), Hep3B; type: cell-based; conditions: Homo sapiens, average of at least three independent replicates ± SD, read-out: Anti-proliferative activities (IC50, μM) Hep3B
Method: as §2, §1

[6] = tested on: SMMC-7721 cells; experiment: Cell proliferation assay (MTT), SMMC-7721; type: cell-based; conditions: Homo sapiens, average of at least three independent replicates ± SD, read-out: Anti-proliferative activities (IC50, μM) SMMC-7721
Method: as §2, §1

[7] = HepG2, Table 1, cell proliferation inhibition, read-out: IC50 (μM) HepG2
[8] = HepG2, Table 2, average of at least three independent replicates ± SD, read-out: Anti-proliferative activities (IC50, μM) HepG2
[9] = Table 1, cell proliferation inhibition, read-out: IC50 (μM) Huh7
[10] = Table 2, average of at least three independent replicates ± SD, read-out: Anti-proliferative activities (IC50, μM) Huh-7

| SMILES | remaining activity at 1 µM [1] [%] | IC50 [1] [µM] | remaining activity at 1 µM [2] [%] | IC50 [2] [µM] | IC50 [3, 7] [µM] | IC50 [3, 8] [µM] | IC50 [4, 9] [µM] | IC50 [4, 10] [µM] | IC50 [5] [µM] | IC50 [6] [µM] | melting point [°C] |
| --- | --- | --- | --- | --- | --- | --- | --- | --- | --- | --- | --- |
| Cc1ccc(S(=O)(=O)NC2=C(C#N)C(c3ccsc3)c3c(C)nn(-c4ccccc4)c3O2)cc1 (stereo not shown) [4m, N-(5-cyano-3-methyl-1-phenyl-4-(thiophen-3-yl)-1,4-dihydropyrano[2,3-c]-pyrazol-6-yl)-4-methylbenzenesulfonamide] | 45 | 1.7 ± 0.22 | 58 | 3.86 ± 0.39 | 7.2 ± 0.65 | 9.15 | > 10 | > 10 | 9.84 ± 1.37 | 9.6 ± 1.05 | 67.8 to 68.4 |
| Cc1ccc(S(=O)(=O)NC2=C(C#N)C(c3ccc(C(F)(F)F)cc3)c3c(C)nn(-c4ccccc4)c3O2)cc1 (stereo not shown) [4n, N-(5-cyano-3-methyl-1-phenyl-4-(4-(trifluoromethyl)phenyl)-1,4-dihydropyrano[2,3-c]-pyrazol-6-yl)-4-methylbenzenesulfonamide] | 46 | 1.81 ± 0.19 | 59 | 4.11 ± 0.45 | 8.46 ± 0.92 | 8.46 ± 0.92 | 9.58 ± 0.92 | 9.58 ± 0.92 | > 10 | > 10 | 109.3 to 110.2 |
| Cc1nn(-c2ccccc2)c2c1C(c1ccc(C(F)(F)F)cc1)C(C#N)=C(NS(=O)(=O)c1cccs1)O2 (stereo not shown) [4o, N-(5-cyano-3-methyl-1-phenyl-4-(4-(trifluoromethyl)phenyl)-1,4-dihydropyrano[2,3-c]-pyrazol-6-yl)thiophene-2-sulfonamide] | 36 | 0.96 ± 0.12 | 47 | 1.93 ± 0.26 | 5.32 ± 0.61 | 5.32 ± 0.61 | > 10 | > 10 | 7.69 ± 0.84 | > 10 | 55.9 to 56.7 |
| Cc1nn(-c2ccccc2)c2c1C(c1ccc(C(F)(F)F)cc1)C(C#N)=C(NS(=O)(=O)c1ccc(C(F)(F)F)cc1)O2 (stereo not shown) [4q, N-(5-cyano-3-methyl-1-phenyl-4-(4-(trifluoromethyl)phenyl)-1,4-dihydropyrano[2,3-c]-pyrazol-6-yl)-4-(trifluoromethyl)-benzenesulfonamide] | 37 | 1.02 ± 0.09 | 39 | 1.16 ± 0.19 | 8.65 ± 0.97 | 8.65 ± 0.97 | 8.42 ± 0.94 | 8.42 ± 0.94 | 7.76 ± 1 | > 10 | 153.7 to 154.1 |
| Cc1nn(-c2ccccc2)c2c1C(c1ccc(C(F)(F)F)cc1)C(C#N)=C(NS(=O)(=O)c1ccc(F)cc1F)O2 (stereo not shown) [4r, N-(5-cyano-3-methyl-1-phenyl-4-(4-(trifluoromethyl)phenyl)-1,4-dihydropyrano[2,3-c]-pyrazol-6-yl)-2,4-difluorobenzenesulfonamide] | 30 | 0.66 ± 0.08 | 43 | 1.49 ± 0.22 | 7.56 ± 0.92 | 7.56 ± 0.92 | 7.39 ± 0.85 | 7.39 ± 0.85 | 8.3 ± 0.66 | > 10 | 65.8 to 66.5 |
